In patent US20220152031A1, “PYRIDAZINONES AND METHODS OF USE THEREOF” (Goldfinch Bio, Inc., priority 2019, published 2022):

These molecules were tested against T1, TRPC4 (Homo sapiens, UniProt Q9UBN4) (assay: TRPC4 activity assay (FLIPR calcium fluorescence, HEK-TREx hTRPC4 cells)). Conditions: Table 5, HEK-TREx hTRPC4; read-out: TRPC4 FLIPR IC50.
T1 construct: expressed in transfected cells
T1 sequence (Q9UBN4 1-982 isoform Q9UBN4-5): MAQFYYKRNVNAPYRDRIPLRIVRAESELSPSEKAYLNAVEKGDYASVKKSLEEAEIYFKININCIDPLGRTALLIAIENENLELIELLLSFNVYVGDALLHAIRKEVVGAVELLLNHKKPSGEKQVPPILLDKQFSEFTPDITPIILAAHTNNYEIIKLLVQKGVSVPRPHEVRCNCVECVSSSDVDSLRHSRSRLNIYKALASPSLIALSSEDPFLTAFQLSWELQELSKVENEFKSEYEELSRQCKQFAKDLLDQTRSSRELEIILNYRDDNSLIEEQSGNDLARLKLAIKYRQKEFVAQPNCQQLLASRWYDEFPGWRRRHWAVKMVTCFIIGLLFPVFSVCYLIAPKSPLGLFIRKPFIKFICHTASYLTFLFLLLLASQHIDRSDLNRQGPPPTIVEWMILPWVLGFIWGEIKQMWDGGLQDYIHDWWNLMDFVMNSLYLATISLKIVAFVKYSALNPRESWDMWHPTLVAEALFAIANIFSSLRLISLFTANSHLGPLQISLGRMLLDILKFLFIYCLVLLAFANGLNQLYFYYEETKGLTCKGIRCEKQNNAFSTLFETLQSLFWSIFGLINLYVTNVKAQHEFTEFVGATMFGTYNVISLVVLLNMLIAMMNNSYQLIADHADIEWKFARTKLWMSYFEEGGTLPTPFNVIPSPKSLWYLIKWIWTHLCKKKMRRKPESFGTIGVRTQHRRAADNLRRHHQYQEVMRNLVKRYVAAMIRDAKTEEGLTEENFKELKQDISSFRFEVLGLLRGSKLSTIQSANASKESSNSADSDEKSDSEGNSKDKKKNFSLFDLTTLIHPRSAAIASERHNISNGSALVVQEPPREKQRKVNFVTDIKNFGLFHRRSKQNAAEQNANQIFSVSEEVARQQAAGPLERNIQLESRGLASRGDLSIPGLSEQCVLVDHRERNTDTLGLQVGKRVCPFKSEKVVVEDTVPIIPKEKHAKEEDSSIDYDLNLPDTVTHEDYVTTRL
Format: cell-based
Protocol: (§1) ICLN-1694 cells (HEK-TREx hTRPC4) expressing TRPC4 were generated as follows. Commercially available HekTrex-293 cells were seeded at 0.7×10^6 cells/well in a 1×6-well plate 24 hrs prior to transfection using 2 mL cell growth media containing no antibiotics (lx DMEM/high glucose (Hyclone #SH30022.02); 10% fetal bovine serum (Sigma) 2 mM sodium pyruvate, 10 mM HEPES). […] On day 2, 2 μg of plasmid DNA plus 6 μl of Xtreme-GENE HP reagent in Optimem (200 μl total volume) was prepared and incubated for 15 min at room temperature. This plasmid solution was then gently overlayed dropwise onto each well and the plate was gently swirled to mix complex with the media for approximately 30 seconds. Transfected cells were incubated at 37° C. in a 10% CO2 incubator for 24 hrs. The transfected cells were harvested and transferred into 2×150 mm dishes containing cell growth media with no antibiotics at 37° C.
(§2) The next day selection was initiated to generate a stable pool by adding cell growth media containing 150 μg/mL Hygromycin and 5 μg/mL Blasticidin and cells were allowed to grow. Media with the selection agent was changed every 1-2 days as needed to remove dead cells. After 7 days, the hygromycin concentration was reduced to 75 μg/mL and cells growth was allowed to continue.
(§3) Single clones were selected as follows. The stable pool was diluted to 10 cells/mL and seeded (100 μl/well) into 24×96 well plates (˜1 cell/well) and allowed to grow for 7 days in cell growth media. Fresh media (100 μl) was added and the cells allowed to grow for another 1-2 weeks and then stored frozen or used immediately.
(§4) 10-point dose response curves were generated using the Echo-550 acoustic dispenser. Compound source plates were made by serially diluting compound stocks to create 10 mM, 1 mM, and 0.1 mM solutions in DMSO into Echo-certified LDV plates. The Echo then serially spotted 100% DMSO stock solutions into source dose response plates to generate a 4-fold dilution scheme. 100% DMSO was added to the spotted dose response plates to bring the final volume to 5 μl. 300 nl of the dose response stock plate was then spotted into pre-incubation and stimulation assay plates. 50 μl of pre-incubation buffer and 100 μl of stimulation buffer was then added to the plates resulting in a final assay test concentration range of 30 μM to 0.0001 μM with a final DMSO concentration of 0.3%.
ICLN-1694 cells (HEK-TREx hTRPC4) were plated onto 384 well, black pdl-coated microplates and maintained in cell growth media supplemented with 1 μg/mL tetracycline the day prior to use for experiments. TRPC4 expression was induced by the application of 1 μg/mL tetracycline at the time of plating. […] Cells were incubated at room temperature, protected from light, for 60-90 minutes. After the incubation period, the dye was removed and replaced with 10 μl of EBSS. Cell, pre-incubation and stimulation plates were loaded onto the FLIPR-II and the assay was initiated. The FLIPR measured a 10 second baseline and then added 10 μl of 2× compounds (or controls). Changes in fluorescence were monitored for an additional 5 minutes. After a 5 minute pre-incubation, 20 μl of 2× Englerin A (with 1× compound or controls) was added to the cell plate. The final Engerlin A stimulation concentration in the assay was 100 nM. After the Englerin A addition, changes in fluorescence were monitored for an additional 5 minutes.
Compound modulation of TRPC4 calcium response was determined as follows. After the Englerin A, fluorescence was monitored for a 5-minute period. The maximum relative fluorescence response (minus the control response of 1 μM of an internal control compound known to maximally block TRPC4 calcium response, the “REF INHIB” in the formula below) was captured and exported from the FLIPR.
(§5) Compound effect is calculated as % inhibition using the following formula: […]
(§6) wherein “RFU” is the relative fluorescent units.

IC50 [nM]	SMILES
0.01 to 1000	CC(c1ccc(F)cc1C(F)(F)F)N1C[C@@H](C)N(c2cn[nH]c(=O)c2Cl)CC1=O (single isomer, unassigned) [MD]

These molecules were tested against T2, TRPC5 (Homo sapiens, UniProt Q9UL62) (assay: TRPC5 activity assay (FLIPR calcium fluorescence, HEK-TREx hTRPC5 cells)). Conditions: HEK-TREx hTRPC5 cells, FLIPR, 30 μM Riluzole stimulation; read-out: TRPC5.
T2 construct: expressed in transfected cells
T2 sequence (Q9UL62 1-973): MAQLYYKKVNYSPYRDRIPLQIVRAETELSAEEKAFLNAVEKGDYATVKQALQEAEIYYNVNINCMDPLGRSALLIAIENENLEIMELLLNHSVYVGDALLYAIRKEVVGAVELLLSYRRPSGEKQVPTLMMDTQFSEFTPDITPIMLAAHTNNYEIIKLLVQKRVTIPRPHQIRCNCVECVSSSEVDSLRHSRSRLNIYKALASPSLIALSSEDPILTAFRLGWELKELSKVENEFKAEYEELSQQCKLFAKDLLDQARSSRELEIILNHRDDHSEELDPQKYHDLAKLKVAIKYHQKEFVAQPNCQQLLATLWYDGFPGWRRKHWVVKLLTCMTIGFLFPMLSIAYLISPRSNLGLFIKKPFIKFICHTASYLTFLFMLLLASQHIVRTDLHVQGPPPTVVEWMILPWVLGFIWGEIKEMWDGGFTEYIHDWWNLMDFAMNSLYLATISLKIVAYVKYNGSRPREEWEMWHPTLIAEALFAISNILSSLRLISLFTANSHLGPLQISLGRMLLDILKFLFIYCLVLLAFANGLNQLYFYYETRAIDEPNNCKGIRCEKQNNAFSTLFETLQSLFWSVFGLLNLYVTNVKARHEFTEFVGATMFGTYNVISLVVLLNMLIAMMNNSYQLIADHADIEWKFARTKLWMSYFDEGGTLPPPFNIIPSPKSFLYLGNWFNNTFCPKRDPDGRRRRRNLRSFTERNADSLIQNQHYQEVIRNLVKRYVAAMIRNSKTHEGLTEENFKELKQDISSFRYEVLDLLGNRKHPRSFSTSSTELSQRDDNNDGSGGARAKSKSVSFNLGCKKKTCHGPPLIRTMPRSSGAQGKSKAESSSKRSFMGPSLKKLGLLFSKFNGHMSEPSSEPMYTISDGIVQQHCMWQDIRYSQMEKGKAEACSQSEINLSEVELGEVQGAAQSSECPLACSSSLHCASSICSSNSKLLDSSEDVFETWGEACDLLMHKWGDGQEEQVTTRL
Format: cell-based
Protocol: as §1, with “ICLN-1633” for “ICLN-1694”, “hTRPC5)” for “hTRPC4)”, “TRPC5” for “TRPC4”
as §2, §3
as §4, with “Echo certified” for “Echo-certified”
Human ICLN-1633 cells expressing were plated onto 384 well, black PDL-coated microplates and maintained in TRPC5 growth media the day prior to use for experiments. TRPC5 expression was induced by the application of 1 μg/mL tetracycline at the time of plating. […] Cells are incubated at room temperature, protected from light, for 60-90 minutes. After the incubation period, the dye is removed and replaced with 10 μl of EBSS. Cell, pre-incubation and stimulation plates are loaded onto the FLIPR-II and the assay is initiated. The FLIPR measures a 10 second baseline and then adds 10 μl of 2× compounds (or controls). Changes in fluorescence are monitored for an additional 5 minutes. After the 5 minute pre-incubation, 20 μl of 2× Riluzole (with 1× compound or controls) is added to the cell plate. The final Riluzole stimulation concentration in the assay is 30 μM. After the Riluzole addition, changes in fluorescence are monitored for an additional 5 minutes.
Compound modulation of TRPC5 calcium response was determined as follows. After the Englerin A, fluorescence was monitored for a 5-minute period. The maximum relative fluorescence response (minus the control response of 1 μM of an internal control compound known to maximally block TRPC5 calcium response, the “REF INHIB” in the formula below) was captured and exported from the FLIPR.
as §5, §6

IC50 [nM]	SMILES
50 to 500	CN(c1ccc(F)cc1C(F)(F)F)c1cc(=O)n(C)c2c1CCN(c1cn[nH]c(=O)c1Cl)C2 [Compound 127, 7-(5-Chloro-6-oxo-1,6-dihydropyridazin-4-yl)-4-[[4-fluoro-2-(trifluoromethyl)phenyl](methyl)amino]-1-methyl-1,2,5,6,7,8-hexahydro-1,7-naphthyridin-2-one]
50 to 500	COc1nc2c(c(Oc3ccc(F)cc3C(F)(F)F)n1)CCN(c1cn[nH]c(=O)c1Cl)C2 [Compound 139, 4-Chloro-5-[4-[4-fluoro-2-(trifluoromethyl)phenoxy]-2-methoxy-5H,6H,7H,8H-pyrido[3,4-d]pyrimidin-7-yl]-2,3-dihydropyridazin-3-one]
< 50	Nc1nc2c(c(Oc3ccccc3C(F)(F)F)n1)CCN(c1cn[nH]c(=O)c1Cl)C2 [Compound 102]
< 50	O=c1[nH]ncc(N2CCc3c(nc(CO)nc3Oc3ccc(F)cc3Cl)C2)c1Cl [Compound 114]
< 50	O=c1[nH]ncc(N2CCc3c(ncnc3Oc3c(F)cccc3C(F)(F)F)C2)c1Cl [Compound 121]
50 to 500	O=c1[nH]ncc(N2CCc3c(nc(NCCO)nc3Oc3ccccc3C(F)(F)F)C2)c1Cl [Compound 115, 4-chloro-5-[2-[(2-hydroxyethyl)amino]-4-[2-(trifluoromethyl)phenoxy]-5H,6H,7H,8H-pyrido[3,4-d]pyrimidin-7-yl]-2,3-dihydropyridazin-3-one]
< 50	O=c1[nH]ncc(N2CCc3c(ncnc3Oc3cc(F)ccc3C(F)(F)F)C2)c1Cl [Compound 106]
< 50	O=c1[nH]ncc(N2CCc3c(nc(CO)nc3Oc3ccc(F)cc3C(F)F)C2)c1Cl [Compound 134, 4-chloro-5-[4-[2-(difluoromethyl)-4-fluorophenoxy]-2-(hydroxymethyl)-5H,6H,7H,8H-pyrido[3,4-d]pyrimidin-7-yl]-2,3-dihydropyridazin-3-one]
50 to 500	N#Cc1cccc(Oc2ncnc3c2CCN(c2cn[nH]c(=O)c2Cl)C3)c1C(F)(F)F [Compound 111, 3-[[7-(5-Chloro-6-oxo-1,6-dihydropyridazin-4-yl)-5H,6H,7H,8H-pyrido[3,4-d]pyrimidin-4-yl]oxy]-2-(trifluoromethyl)benzonitrile]
< 50	Cc1cc(F)ccc1Oc1ncnc2c1CCN(c1cn[nH]c(=O)c1Cl)C2 [Compound 124]
< 50	O=c1[nH]ncc(N2CCc3c(ncnc3Oc3ccc(F)cc3C(F)F)C2)c1Cl [Compound 105]
